From patent US20110225663A1, “METHOD FOR PRODUCING EUKARYOTIC ORGANISMS WITH ENHANCED PATHOGEN RESISTANCE AND/OR RESISTANCE TO STRESS AND EUKARYOTIC TRANSGENIC ORGANISMS WITH ENHANCED PATHOGEN RESISTANCE AND/OR RESISTANCE TO STRESS” (WESTFAELISCHE WILHELMS-UNIVERSITAET MUENSTER, priority 2008, published 2011)

Assays:
NADPH oxidase = tested on: NADPH oxidase
Source text: This leads to the formation of hypersensitive lesions in leaf tissue of resistant varieties after pathogen infection (incompatible interaction).

G6PDH = test: Inhibitor study with Glucosamine-6-P in tobacco leaves infected with P. nicotianae; type: in vivo
Source text: The involvement of the oxidative pentose phosphate pathway (OPPP) in the oxidative burst of plants was shown by inhibitor studies with Glucosamine-6 phosphate (Glucosamine-6-P). This is a well-known competitive inhibitor for G6PDH (as described in Glaser B L and Brown D H: Purification and properties of D-glucose 6-phosphate dehydrogenase, J Biol Chem 216, pp 67-79 (1955)), the first enzyme of the OPPP, which transforms G6P into 6-phosphogluconolactone.
Hydrogen peroxide (H2O2) accumulation was detected by in situ staining with 3,3-diaminobenzidine (DAB) following a modified protocol of Thordal-Christensen H, Zhang Z G, Wei Y D, Collinge D B: Subcellular localization of H2O2 in plants: H2O2 accumulation in papillae and hypersensitive response during the barley-powdery mildew interaction, Plant J 11, pp 1187-1194 (1997). Leaves were placed in DAB solution (1 mg mL^−1, pH 3.8) for 6 h. A dark-brown polymerization product formed at sites where DAB reacts with H2O2 produced by the tissue. Incubations were stopped and leaf tissue was simultaneously cleared from chlorophyll by boiling in ethanol for 10 min.

[1] = tested on: Arabidopsis glucose-6-phosphate dehydrogenase P2 (At1g24280), recombinant enzyme with C-terminal Strep-tag; conditions: cited from earlier work
[2] = molecular target: Arabidopsis thaliana glucose-6-phosphate dehydrogenase isoform At1g24280 (P2 class), N-terminally truncated without transit peptide (cP2, 5′ delta 195 bp) (Arabidopsis thaliana, UniProt Q8L743); test: biochemical
[3] = FIG. 2 bottom, infiltrated tobacco leaf

Arabidopsis thaliana glucose-6-phosphate dehydrogenase isoform At1g24280 (P2 class), N-terminally truncated without transit peptide (cP2, 5′ delta 195 bp), sequence (Q8L743 67-599): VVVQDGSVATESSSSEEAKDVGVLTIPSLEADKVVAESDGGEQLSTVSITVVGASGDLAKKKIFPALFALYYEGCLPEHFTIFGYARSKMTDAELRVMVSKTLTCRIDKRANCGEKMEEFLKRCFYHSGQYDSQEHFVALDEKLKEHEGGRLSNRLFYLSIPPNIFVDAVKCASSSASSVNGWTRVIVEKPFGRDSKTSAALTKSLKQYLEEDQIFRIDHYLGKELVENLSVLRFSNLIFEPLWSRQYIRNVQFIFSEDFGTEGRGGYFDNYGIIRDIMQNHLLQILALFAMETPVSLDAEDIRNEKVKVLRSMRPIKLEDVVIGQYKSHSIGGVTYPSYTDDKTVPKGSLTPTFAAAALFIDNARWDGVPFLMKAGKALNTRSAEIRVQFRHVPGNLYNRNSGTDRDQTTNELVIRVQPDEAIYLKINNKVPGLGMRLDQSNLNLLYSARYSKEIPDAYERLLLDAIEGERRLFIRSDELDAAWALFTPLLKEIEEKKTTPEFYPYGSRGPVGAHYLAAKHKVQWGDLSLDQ

## c1ccc2c(c1)[I+]c1ccccc1-2 [DPI, diphenylene iodonium]
NADPH oxidase; [3]
  defence-induced H2O2 production (DAB-staining) and formation of hypersensitive lesions: Interference
NADPH oxidase; tobacco leaves treated with 25-100 mM DPI
  formation of hypersensitive lesions after infection with P. nicotianae: did not induce the formation of hypersensitive lesions

## N[C@@H]1[C@@H](O)[C@H](O)[C@@H](COP(=O)(O)O)O[C@@H]1O [GN6P, Glucosamine-6 phosphate]
G6PDH; [3]
  defence-induced H2O2 production (DAB-staining) and formation of hypersensitive lesions: Interference
G6PDH; tobacco leaves treated with 25-50 mM GN6P
  ROS production after infection with P. nicotianae: did not result in detectable ROS production

## NC(=O)c1ccc[n+]([C@@H]2O[C@H](COP(=O)(O)OP(=O)(O)OC[C@H]3O[C@@H](n4cnc5c(N)ncnc54)[C@H](OP(=O)(O)O)[C@@H]3O)[C@@H](O)[C@H]2O)c1 [NADP+, nicotinamide-dinucleotide phosphate, oxidized form]
[1]; read-out: Km[NADP+], Wakao and Benning (2005)
  Km: 17 µM

## NC(=O)C1=CN([C@@H]2O[C@H](COP(=O)(O)OP(=O)(O)OC[C@H]3O[C@@H](n4cnc5c(N)ncnc54)[C@H](OP(=O)(O)O)[C@@H]3O)[C@@H](O)[C@H]2O)C=CC1 [NADPH, nicotinamide-dinucleotide phosphate, reduced form]
[2]
  Ki: 4.6 µM
[1]; Wakao and Benning (2005), read-out: Ki[NADPH]
  Ki: 22 µM
